What was measured:
[1] = Inhibition of recombinant Plasmodium falciparum falcipain 2 after 30 mins by fluorescence assay
Plasmodium falciparum [2] = assay: Antiplasmodial activity against chloroquine-sensitive blood stage Plasmodium falciparum 3D7 after 72 hrs by SYBR Green I-based fluorescence assay; format: functional, organism-based; details: 3D7, 72 h
Plasmodium falciparum [3] = assay: Antiplasmodial activity against chloroquine-resistant blood stage Plasmodium falciparum Dd2 after 72 hrs by SYBR Green I-based fluorescence assay; format: functional, organism-based; details: Dd2, 72 h

Row | Structure (SMILES) | IC50 [1] [µM] | IC50 (Plasmodium falciparum [2]) [µM] | IC50 (Plasmodium falciparum [3]) [µM]
1 | CCCCOC(=O)[C@H]1c2c(/C=C/C(=O)O[C@H](Cc3ccc(O)c(O)c3)C(=O)O)ccc(O)c2O[C@@H]1c1ccc(O)c(O)c1 | 3.18 |  | 
2 | O=C1c2c(O)cc(O)cc2O[C@H](c2cc(O)c(O)c(O)c2)[C@@H]1O | 44.8 | 75.5 | > 50
3 | O=C1c2c(O)cc(O)cc2O[C@@]2(c3ccc(O)cc3)Oc3cc(O)c4c(c3[C@]12O)O[C@H](c1ccc(O)cc1)CC4 | 5.23 | 60.6 | 66.7
4 | CCOC(=O)c1c(O)cc(O)c2c1OC(c1ccc(O)cc1)CC2 (configuration not stated) | 9.12 | 60.3 | 86.8
5 | COc1cc(O[C@@H]2O[C@H](CO[C@@H]3OC[C@@H](O)[C@H](O)[C@H]3O)[C@@H](O)[C@H](O)[C@H]2O)c2c(=O)cc(-c3ccc(O)cc3)oc2c1 | 17.1 | > 250 | > 500
6 | COc1cc(-c2oc3cc(O)cc(O)c3c(=O)c2O[C@@H]2O[C@H](COC(C)=O)[C@@H](O)[C@H](O)[C@H]2O)cc(OC)c1O | 68.2 |  | 
7 | C[C@@H]1CC[C@H]2[C@@H](C)C(=O)O[C@@H]3O[C@@]4(C)CC[C@@H]1[C@]32OO4 [ARTEMISININ] |  | 0.04 | 0.049
8 | COC(=O)[C@@H](Cc1ccc(O)c(O)c1)OC(=O)/C=C/c1ccc(O)c2c1[C@H](C(=O)OC)[C@@H](c1ccc(O)c(O)c1)O2 [DIMETHYL LITHOSPERMATE] | 3.77 |  | 
9 | CC(C)C[C@H](NC(=O)[C@H]1O[C@@H]1C(=O)O)C(=O)NCCCCN=C(N)N [E-64] | 0.017 |  | 
10 | C[C@@H]1O[C@@H](O[C@H]2[C@H](O)[C@@H](COC(=O)/C=C/c3ccc(O)c(O)c3)O[C@H]3OC[C@H](c4ccc(O)c(O)c4)O[C@@H]32)[C@H](O)[C@H](O)[C@H]1O [ISOCRENATOSIDE] | 53.1 | > 50 | 93.1
11 | O=c1c(O[C@@H]2O[C@H](CO)[C@@H](O)[C@H](O)[C@H]2O)c(-c2ccc(O)c(O)c2)oc2cc(O)cc(O)c12 [ISOQUERCETIN] | 15.7 | 5.54 | 4.05
12 | O=C1c2c(O)cc(O)cc2O[C@H](c2ccc(O)c(O)c2)[C@H]1O [TAXIFOLIN] | 56.9 | 48.2 | 55
